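Step 1: Grow cells in 96-well plates. Step 2: Expose to compound for 48 hours at 5 concentrations. Step 3: Interpolate endpoints linearly; if unreached, use highest concentration. At the GI50, growth is halved.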 Activity calls are given as the source filed them. No stated cut-off is given here; in the data, active = GI50 up to about 1.1 µM and inactive = higher.
Legend:
Experiment in all cases: inhibition of tumour cell growth, NCI panel, 48 h
786-0 = system: 786-0
BT-549 = system: BT-549
DU-145 = system: DU-145
Hs-578T = system: Hs-578T
MDA-MB-231 = system: MDA-MB-231
MDA-N = system: MDA-N
PC-3 = system: PC-3
T47D = system: T47D
MDA-MB-435 = system: MDA-MB-435

Measured: GI50

CCN(CC)C(=O)C(C)n1cc(C)c(=O)[nH]c1=O (stereo unspecified)
inactive: 786-0 > 100 µM

CCOC(=O)c1c(NC(=S)NCc2ccccc2)sc2c1CCN(C)C2
inactive: BT-549 59 µM | DU-145 64.1 µM | Hs-578T 64.4 µM | MDA-MB-231 47.8 µM | MDA-N > 100 µM | PC-3 35.4 µM | T47D 41.5 µM

Oc1ccc(Cl)cc1C1=Nn2c(COc3ccc4c(c3)CCCC4)nnc2SC1
inactive: BT-549 18.3 µM | DU-145 18.3 µM | Hs-578T 14.3 µM | MDA-MB-231 14.8 µM | MDA-MB-435 17 µM | MDA-N 14.6 µM | PC-3 10.6 µM | T47D 11.2 µM

CCOC1CC2OC(=O)C1C=C2C(=O)OC (stereo unspecified)
inactive: 786-0 29.2 µM

O=C1OC(c2ccccc2)=N/C1=C\c1cccnc1
inactive: BT-549 59.8 µM | Hs-578T > 100 µM | MDA-MB-435 > 100 µM | PC-3 > 100 µM
